Measured values published in publication PMC3880013, “Toward an Understanding of Agonist Binding to Human Orexin-1 and Orexin-2 Receptors with G-Protein-Coupled Receptor Modeling and Site-Directed Mutagenesis” (Biochemistry, 2013).
Where two headings read alike, the source gives them in different places. Marks after values point to notes of the source that are not given here. Where no end group is shown, it is not given here.

Columns and labels:
hOX2 D211A = test system: hOX2 D211A; set-up: method as in earlier work; settings: hOX2 D211A (45.51) relative to wild type, [Ca2+]i response, ref 37 Malherbe et al., cited from earlier work
hOX2 W214A = test system: hOX2 W214A; set-up: method as in earlier work; settings: hOX2 W214A (45.54) relative to wild type, [Ca2+]i response, ref 37 Malherbe et al., cited from earlier work
hOX2 T111A = test system: hOX2 T111A; set-up: method as in earlier work; settings: hOX2 T111A (2.61) relative to wild type, [Ca2+]i response, ref 37 Malherbe et al., cited from earlier work
hOX2 Q187A = assay: Calcium flux assay, CHO-K1 cells stably expressing Orexin receptor mutant; assay type: cell-based, human; settings: hOX2 Q187A (4.60) relative to wild type, CHO-K1, Fluo-4AM, this work
Method: (§1) A combination of overlap and mismatch polymerase chain reaction (PCR) was used to introduce mutations into the corresponding Orexin-1 and Orexin-2 cDNAs as described by us previously.[62] Each mutation was made via the generation of two overlapping PCR fragments with PfuUltra II Fusion HS DNA Polymerase (Strategene). The two products were extracted, and a second round of PCR was performed via combination of both fragments with 5′ and 3′ gene specific primers (containing BamHI and NotI restriction sites, respectively). The resulting gel-purified products were then cloned into expression vector pFB-Neo for subsequent generation of stable cell lines. Constructs were confirmed via sequencing. Each verified cDNA was subsequently used to generate single, stably expressing clones in the CHO-K1 cell line.
(§2) Standard calcium flux assays were used to assess the functionality of each OX receptor mutant. Each CHO-K1 Orexin mutant was seeded into tissue culture-treated, 384-well, black clear-bottom plates (CellBind Corning 7086), at a density of 7500 cells/well in culture medium and maintained in an incubator (5% CO2 at 37 °C) overnight. The cell medium was removed, and the cells were incubated in 20 μL of assay buffer (4 μM Fluo-4AM in HBSS with 0.1% BSA) for 90 min at 37 °C. After incubation, the dye was removed and 45 μL of fresh buffer, without dye, was applied. Antagonists (5 μL) were applied, and after incubation for an additional 20 min at 37 °C, 20 μL of receptor specific agonists was applied and the calcium flux monitored using a Flex Station (Molecular Devices) over a period of 1 min. In all cases, the EC80 specific for the individual mutant as determined in previous experiments was reported.

hOX2 F227W = assay: as above; assay type: cell-based, human; settings: hOX2 F227W (5.42) relative to wild type, CHO-K1, Fluo-4AM, this work
Method: as §1, §2

hOX1 Y311F = assay: as above; assay type: cell-based, human; settings: hOX1 Y311F (6.48) relative to wild type, CHO-K1, Fluo-4AM, this work
Method: as §1, §2

hOX1 Q179A = assay: as above; assay type: cell-based, human; settings: hOX1 Q179A (4.60) vs wild type, CHO-K1, Fluo-4AM, this work
Method: as §1, §2

hOX2 Q134A = assay: as above; assay type: cell-based, human; settings: hOX2 Q134A (3.32) relative to wild type, CHO-K1, Fluo-4AM, this work
Method: as §1, §2

hOX2 Y232A = test system: hOX2 Y232A; set-up: method as in 2 sources, one per row (each row's own in cited_ref): ref 37 Malherbe et al. ||| ref 37 = [37]; PMID 20404073; doi:10.1124/mol.110.064584; Malherbe P.; Roche O.; Marcuz A.; Kratzeisen C.; Wettstein J. G.; Bissantz C. ( 2010 ) Mapping the Binding Pocket of Dual Antagonist Almorexant to Human Orexin 1 and Orexin 2 Receptors: Compariso; settings: cited from earlier work; for ratio EC50(mut)/EC50(WT): hOX2 Y232A (5.47) relative to wild type, [Ca2+]i response, ref 37 Malherbe et al.
hOX2 Y317A = settings: cited from earlier work; for ratio EC50(mut)/EC50(WT): hOX2 Y317A (6.48) relative to wild type, [Ca2+]i response, ref 37 Malherbe et al.
Text: D211^45.51 is in the proximity of L19. L19 and L20 form hydrophobic interactions with W214^45.54 and H350^7.39, respectively. […] In the case of OX2, Y223^5.38 forms an interaction with H26 of OxA. F227^5.42 forms a ...

hOX2 H350A = settings: cited from earlier work; for ratio EC50(mut)/EC50(WT): hOX2 H350A (7.39) relative to wild type, [Ca2+]i response, ref 37 Malherbe et al.
Text: We observed that in OX1, H^7.39 interacts with residues L16 and L20 of helix 1 of OxA (see Figure 6A). […] On the other hand, in OX2, H^7.39 interacts with L20 and not with L16 (see Figure 6B), and ...

hOX1 Y215A = hOX1 Y215A (5.38) relative to wild type, [Ca2+]i response, ref 37 Malherbe et al., cited from earlier work
Text: (§3) Other mutations had no major effect on efficacy.

hOX1 W206A = settings: cited from earlier work; for ratio EC50(mut)/EC50(WT): hOX1 W206A (45.54) relative to wild type, [Ca2+]i response, ref 37 Malherbe et al.
Text: as §3

hOX1 D203A = hOX1 D203A (45.51) relative to wild type, [Ca2+]i response, ref 37 Malherbe et al., cited from earlier work
Text: as §3

hOX1 Y311A = settings: cited from earlier work
Text: as §3

hOX1 Y224A = hOX1 Y224A (5.47) relative to wild type, [Ca2+]i response, ref 37 Malherbe et al., cited from earlier work
Text: as §3

Orexin-A (QPLPDCCRQKTCSCRLYELLHGAGNHAAGILTL; ends and bridges not checked; cysteine pairing not given here; UniProt O43612 34-66, looked up) [hypothalamic neuropeptide, 33 amino acids, two intramolecular disulfide bonds C6-C12 and C7-C14; natural OX1/OX2 agonist]
ratio EC50(mut)/EC50(WT) (hOX2 D211A): 416.1 ^c fold | ratio EC50(mut)/EC50(WT) (hOX2 D211A; listed as OxA): 416.1 fold | ratio EC50(mut)/EC50(WT) (hOX2 W214A): 62.4 ^c fold | ratio EC50(mut)/EC50(WT) (hOX2 W214A; listed as OxA): 62.4 fold | ratio EC50(mut)/EC50(WT) (hOX2 T111A): 243.5 ^c fold | ratio EC50(mut)/EC50(WT) (hOX2 T111A; listed as OxA): 243.5 fold | ratio EC50(mut)/EC50(WT) (hOX2 Q187A): 1.3 ^d fold | ratio EC50(mut)/EC50(WT) (hOX2 F227W): 84.2 ^d fold | ratio EC50(mut)/EC50(WT) (hOX1 Y311F): 1.6 ^d fold | fold improvement in potency relative to wild type (hOX1 Q179A): 17.8 fold improvement | ratio EC50(mut)/EC50(WT) (hOX2 Q134A): 15.1 fold | ratio EC50(mut)/EC50(WT) (hOX2 Y232A): 28.4 ^c fold | ratio EC50(mut)/EC50(WT) (hOX2 Y232A; listed as OxA): 28.4 fold | Emax (decreased) (hOX2 Y232A; hOX2 Y232A compared with WT): 44.9% | ratio EC50(mut)/EC50(WT) (hOX2 Y317A): 17.7 ^c fold | ratio EC50(mut)/EC50(WT) (hOX2 Y317A; listed as OxA): 17.7 fold | relative Emax (decreases to) (hOX2 Y317A; hOX2 Y317A compared with WT): 49.6% | decrease in Emax (hOX2 H350A; OX2 H7.39 (H350) mutated to alanine): 63.0% | ratio EC50(mut)/EC50(WT) (hOX2 H350A): 49.5 ^c fold | ratio EC50(mut)/EC50(WT) (hOX2 H350A; listed as OxA): 49.5 fold | ratio EC50(mut)/EC50(WT) (hOX1 Y215A): 407.8 ^c fold | ratio EC50(mut)/EC50(WT) (hOX1 Y215A; listed as OxA): 407.8 fold | ratio EC50(mut)/EC50(WT) (hOX1 W206A): 417.8 ^c fold | ratio EC50(mut)/EC50(WT) (hOX1 W206A; listed as OxA): 417.8 fold | decrease in the maximal efficacy (Emax) (hOX1 W206A; hOX1 W206A compared with WT): 45.0% | ratio EC50(mut)/EC50(WT) (hOX1 D203A): 408.2 ^c fold | ratio EC50(mut)/EC50(WT) (hOX1 D203A; listed as OxA): 408.2 fold | ratio EC50(mut)/EC50(WT) (hOX1 Y311A; hOX1 Y311A (6.48) relative to wild type, [Ca2+]i response, ref 37 Malherbe et al.): 163.9 fold | decrease in the maximal efficacy (Emax) (hOX1 Y311A; hOX1 Y311A compared with WT): 53.4% | ratio EC50(mut)/EC50(WT) (hOX1 Y224A): 84.4 ^c fold | ratio EC50(mut)/EC50(WT) (hOX1 Y224A; listed as OxA): 84.4 fold
